Test results from patent US20100331269A1, “TRITERPENES DERIVATIVES AND USES THEREOF AS ANTITUMOR AGENTS OR ANTI-INFLAMMATORY AGENTS” (priority 2006, published 2010).
Marks after values point to notes of the source that are not given here.

Columns and labels:
DLD-1 cells = experiment: Cytotoxicity, Hoechst DNA assay, DLD-1; type: cell-based, human; conditions: ± SD
How it was run: (§1)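 Cells grown at 37 °C, 5% CO2, in MEM with 10% FBS. Compound cytotoxicity was measured by Hoechst DNA staining. Activity is expressed as IC50, the concentration inhibiting 50% of cell growth.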

A-549 cells = experiment: Cytotoxicity, Hoechst DNA assay, A-549; type: cell-based, human; conditions: ± SD
How it was run: as §1

Lewis lung carcinoma = experiment: In vivo antitumoral activity against Lewis lung cancer-bearing mice; set-up: species or system C57BL/6 mouse; conditions: day 13
Protocol: Cell lines and mice preparation: The Lewis lung carcinoma cell lines (#CRL-1642, lot # 4372266, ATCC) and the C57BL/6 mouse strain (Charles River Inc., St-Constant, Qc) were used. Cells were grown to 90% confluence in complete DMEM medium containing Earle's salts and L-glutamine (Mediatech Cellgro, Va.), 10% foetal bovine serum (Hyclone), vitamins (1×), penicillin (100 I.U./mL) and streptomycin (100 μg/mL), essential amino acids (1×) and sodium pyruvate (1×) (Mediatech Cellgro, Va.). Cells were then harvested with up and down only. Cells were counted using a hemacytometer and resuspended in DMEM medium without SVF. 100 μL of a solution containing 1×10^7 cells/mL was inoculated subcutaneously in the right flank of each 6 weeks old mouse on day zero.
The experimental mice were weighed daily.
Data analysis: In vivo antitumor activity was evaluated according to the parameters as follows (Miot-Noirault, E. et al. Invest. New Drugs 2004, 22, 369-378):
(a) Calculated tumour weight (CTW): The CTW of each tumour was estimated from two-dimensional measurements performed once a day with a slide calliper, according to the formula: CTW (mg)=(L×W^2)/2 with L=length in mm and W=width in mm. Differences in CTW between treated and control groups (DMSO) were analyzed for significance using the U Wilcoxon-Mann-Whitney test and Student t-test. Values of p<0.05 were considered statistically significant.
(b) Treated/Control value (T/C) and Tumour Growth Inhibition (TGI):The T/C was calculated as the ratio of the mean CTW of TW of drug-treated mice versus controls: T/C=(CTW of the drug-treated group on Day X/CTW of the control group on Day X)×100. TGI is 100−(T/C) value.

U-251 human glioma cells = experiment: Cytotoxicity, resazurin metabolism assay, U-251; type: cell-based; conditions: mean ± SD

C=C(C)[C@@H]1CC[C@]2(C(=O)O)CC[C@]3(C)[C@H](CC[C@@H]4[C@@]5(C)CC[C@H](O[C@@H]6O[C@@H](C)[C@H](O)[C@@H](O)[C@H]6O)C(C)(C)[C@@H]5CC[C@]43C)[C@@H]12 [Compound 22, 3-O-α-L-Rhamnopyranoside of betulinic acid]
IC50 (DLD-1 cells): 3.4 ± 0.5 µM | IC50 (A-549 cells): 2.6 ± 0.3 µM | CTW (calculated tumour weight) (Lewis lung carcinoma; 50 mg/kg IP every 3-4 days): 297 ± 98 mg | T/C (Treated/Control) (Lewis lung carcinoma; 50 mg/kg IP): 91% | TGI (Tumour Growth Inhibition) (Lewis lung carcinoma; 50 mg/kg IP): 9% | CTW (calculated tumour weight) (Lewis lung carcinoma; 100 mg/kg IP every 3-4 days): 178 ± 53^e mg | T/C (Treated/Control) (Lewis lung carcinoma; 100 mg/kg IP): 55% | TGI (Tumour Growth Inhibition) (Lewis lung carcinoma; 100 mg/kg IP): 45% | CTW (calculated tumour weight) (Lewis lung carcinoma; 200 mg/kg IP every 3-4 days): 192 ± 50^e mg | T/C (Treated/Control) (Lewis lung carcinoma; 200 mg/kg IP): 59% | TGI (Tumour Growth Inhibition) (Lewis lung carcinoma; 200 mg/kg IP): 41% | IC50 (U-251 human glioma cells): 20 ± 2 µM
